Structures can show the parent of a compound that is named as a salt.

For the first assay, the target named is T1, human D4 receptor (D4.2 sub-type) (Homo sapiens, UniProt P21917, DEL271-302).
T1 sequence (P21917 with tags, fused parts or gaps DEL271-302): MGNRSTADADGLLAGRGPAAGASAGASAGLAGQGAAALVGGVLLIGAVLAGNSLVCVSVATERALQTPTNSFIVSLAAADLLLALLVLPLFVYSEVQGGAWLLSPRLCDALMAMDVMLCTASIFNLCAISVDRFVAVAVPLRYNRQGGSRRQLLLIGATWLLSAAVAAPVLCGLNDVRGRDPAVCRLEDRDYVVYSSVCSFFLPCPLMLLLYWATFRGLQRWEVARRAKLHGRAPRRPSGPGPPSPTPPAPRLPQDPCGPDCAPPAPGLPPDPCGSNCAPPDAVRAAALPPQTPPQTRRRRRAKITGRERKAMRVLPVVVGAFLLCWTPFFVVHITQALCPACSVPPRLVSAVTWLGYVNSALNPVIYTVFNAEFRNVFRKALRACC
In words: D4 receptor binding assay (3H-spiperone displacement). To be noted: 3H-spiperone 0.25 nM, HEK cell membranes, human D4.2; read-out: D4 RBA Ki. The procedure: D4 receptor-binding affinities of the compounds were evaluated according to their ability to reduce binding of ^3H-spiperone as compared to the reference compound clozapine. The potency of the test compound to reduce ^3H-spiperone binding directly correlated to its binding affinity for the receptor.
[…] (human embryonic kidney) cells stably transfected with human D4 receptor (D4.2 sub-type) were grown in NUNC cell factories for 5 days (75% confluency) without a media change and removed with versene (approximately 19 mg of cells per cell factory tray). The cells were then centrifuged in a Sorval centrifuge for 10 min, 5000 rpm (GS3 rotor) and the pellets quickly frozen in liquid nitrogen and stored at −80° C. until used in binding assay. When used in the assay, cells were thawed on ice for 20 min and then 10 mL of incubation buffer (50 mM Tris, 1 mM EDTA, 4 mM MgCl2, 5 mM KCl, 1.5 mM CaCl2, 120 mM NaCl, pH 7.4) was added. The cells were then vortexed to resuspend pellet and homogenized with a Kinematica, CH-6010 Kriens-LU, homogenizer for 15 seconds at setting 7. Concentration of receptor protein was determined using the Pierce BCA assay.
The incubation was started by the addition of 100 μl (50 μg protein) membrane homogenate to a solution of 300 μl incubation buffer and 100 μl (0.25 nM final conc.) ^3H-spiperone (90 Ci/mmol, Amersham, diluted in borosilicate glass vial) in 96-well polypropylene plates (1 mL per well). The plates were vortexed and incubated at room temperature for 90 minutes. The binding reaction was stopped by filtering using a Packard Harvester. The samples were filtered under vacuum over glass fibre filter plates (Whatman GF/B) presoaked for 2 hours in 0.3% polyethylenimine (PEI) in 50 mM Tris buffer (pH 7.4). The filters were then washed 6 times with 7 mL ice cold 50 mM Tris buffer (pH 7.4). The filter plates were dried overnight and 35 μl of Microscint-O (Packard) was added. The plates were sealed and counted in the Packard Top Count (3 minutes per well).
The incubation was started by the addition of 100 μl (50 μg protein) membrane homogenate to a solution of 200 μl incubation buffer, 100 μl ^3H-spiperone (90 Ci/mmol, Amersham, diluted in borosilicate glass vial to 0.25 nM final conc.) and 100 μl (30 μM final conc.) of fresh dopamine (Research Biochemicals Inc., light protected and dissolved in incubation buffer) in 96-well polypropylene plates (1 mL per well). The plates were vortexed and incubated at room temperature for 90 minutes at which time the binding reaction was stopped by filtering. The filters were washed and counted using the same procedure as in the total binding assay described above to give the non-specific binding value (NSB).
The incubation was started by the addition, in 96-well polypropylene plates (1 mL per well), of 100 μl (50 μg protein) membrane homogenate to a solution of 200 μl incubation buffer, 100 μl (0.25 nM final conc.) ^3H-spiperone (90 Ci/mmol, Amersham, diluted in borosilicate glass vial) and 100 μl of test compound that was prepared from 1 mM stock dissolved in DMSO and stored at −20° C. in polypropylene cryogenic storage vials until dilution in incubation buffer in 96-well polypropylene plates. The plates were vortexed and incubated at room temperature for 90 minutes at which time the binding reaction was stopped by filtering. The filters were washed and counted using the same procedure as in the total binding assay described above to give the displacement binding value (BD).
The test compounds were initially assayed at 1 and 0.1 μM and then at a range of concentrations chosen such that the middle dose would cause about 50% inhibition of ^3H-spiperone binding. Specific binding in the absence of test compound (B0) was the difference of total binding (BT) minus non-specific binding (NSB) and similarly specific binding (in the presence of test compound) (B) was the difference of displacement binding (BD) minus non-specific binding (NSB). […]
As a reminder, the Ki is a measure of affinity in units of concentration, obtained from inhibition or displacement. For the molecule `c1cncc(CNCCCOc2cccc(-c3noc4ccsc34)c2)c1` [Compound 8, pyridin-3-ylmethyl-[3-(3-thieno[2,3-d]isoxazol-3-yl-phenoxy)-propyl]-amine], the Ki is 76 nM.

Turning to `Clc1ccc(CNCCCOc2cccc(-c3noc4ccsc34)c2)cc1` [Compound 4, (4-chloro-benzyl)-[3-(3-thieno[2,3-d]isoxazol-3-yl-phenoxy)-propyl]-amine], the Ki came to 45 nM.

`c1cc(OCCNCc2ccsc2)cc(-c2noc3ccsc23)c1` [Compound 33, [2-(3-thieno[2,3-d]isoxazol-3-yl-phenoxy)-ethyl]-thiophen-3-ylmethylamine hydrochloride]: the inhibition constant Ki turned out to be 15 nM.

For `COc1cccc(CNCCCOc2cccc(-c3noc4ccsc34)c2)c1` [Compound 41, (3-methoxy-benzyl)-[3-(3-thieno[2,3-d]isoxazol-3-yl-phenoxy)-propyl]-amine], the inhibition constant Ki amounted to 44 nM.

Turning to `c1ccc(CNCCOc2cccc(-c3noc4ccsc34)c2)cc1` [Compound 16, benzyl-[2-(3-thieno[2,3-d]isoxazol-3-yl-phenoxy)-ethyl]-amine], the inhibition constant (Ki) came out at 7.6 nM.

As to `COc1ccccc1CNCCOc1cccc(-c2noc3ccsc23)c1` [Compound 21, (2-methoxy-benzyl)-[2-(3-thieno[2,3-d]isoxazol-3-yl-phenoxy)-ethyl]-amine], the Ki amounted to 14.2 nM.

`c1cc(OCCNC23CC4CC(CC(C4)C2)C3)cc(-c2noc3ccsc23)c1` [Compound 47, adamantan-1-yl-[2-(3-thieno[2,3-d]isoxazol-3-yl-phenoxy)-ethyl]-amine]: the Ki is 23 nM.

Turning to `Fc1ccccc1CNCCCOc1cccc(-c2noc3ccsc23)c1` [Compound 2, (2-fluoro-benzyl)-[3-(3-thieno[2,3-d]isoxazol-3-yl-phenoxy)-propyl]-amine], the Ki amounted to 62 nM.

The same assay, now with this note: @ 1 μM test compound; 3H-spiperone binding; read-out: D4 RBA % Inhibition (@ 1 μM).
Broadly, the inhibition is the relative decrease from the control value, in per cent. Consider `CC1CCN(CCOc2cccc(-c3noc4ccsc34)c2)CC1` [Compound 59, 3-{3-[2-(4-methyl-piperidin-1-yl)-ethoxy]-phenyl}-thieno[2,3-d]isoxazole], for which the inhibition at 1 µM turned out to be 90%.

With `FC(F)(F)c1ccc(CNCCCOc2cccc(-c3noc4ccsc34)c2)cc1` [Compound 58, [3-(3-thieno[2,3-d]isoxazol-3-yl-phenoxy)-propyl]-(4-trifluoromethylbenzyl)-amine], the inhibition at 1 µM amounted to 77%.

As to `Fc1cccc(F)c1CNCCOc1cccc(-c2noc3ccsc23)c1` [Compound 50, (2,6-difluoro-benzyl)-[2-(3-thieno[2,3-d]isoxazol-3-yl-phenoxy)-ethyl]-amine], the inhibition at 1 µM worked out at 65%.

Consider `c1cc(OCCN2CCCCCC2)cc(-c2noc3ccsc23)c1` [Compound 62, 3-[3-(2-azepan-1-yl-ethoxy)-phenyl]-thieno[2,3-d]isoxazole], for which the inhibition at 1 µM was 90%.

Consider `Fc1ccc(N2CCN(CCCOc3cccc(-c4noc5ccsc45)c3)CC2)cc1` [Compound 11, 3-(3-{3-[4-(4-fluoro-phenyl)-piperazin-1-yl]-propoxy}-phenyl)-thieno[2,3-d]isoxazole], for which the inhibition at 1 µM was determined as 91%.

`c1cc(OCCNCc2cccs2)cc(-c2noc3ccsc23)c1` [Compound 24, [2-(3-thieno[2,3-d]isoxazol-3-yl-phenoxy)-ethyl]-thiophen-2-ylmethyl-amine]: the inhibition at 1 µM was 95%.

As for `CCCC1CCN(CCOc2cccc(-c3noc4ccsc34)c2)CC1` [Compound 60, 3-{3-[2-(4-propyl-piperidin-1-yl)-ethoxy]-phenyl}-thieno[2,3-d]isoxazole], the inhibition at 1 µM turned out to be 82%.

Take `c1cc(OCCN2CCCCCCC2)cc(-c2noc3ccsc23)c1` [Compound 63, 3-[3-(2-azocan-1-yl-ethoxy)-phenyl]-thieno[2,3-d]isoxazole]: the inhibition at 1 µM was determined as 54%.

For `c1cc(OCCCN2CCCCC2)cc(-c2noc3ccsc23)c1` [Compound 54, 3-[3-(3-piperidin-1-yl-propoxy)-phenyl]-thieno[2,3-d]isoxazole], the inhibition at 1 µM is 94%.

For the molecule `c1ccc(N2CCN(CCCOc3cccc(-c4noc5ccsc45)c3)CC2)cc1` [Compound 10, 3-{3-[3-(4-phenyl-piperazin-1-yl)-propoxy]-phenyl}-thieno[2,3-d]isoxazole], the inhibition at 1 µM was 95%.

As for `Clc1ccccc1CNCCOc1cccc(-c2noc3ccsc23)c1` [Compound 35, (2-chloro-benzyl)-[2-(3-thieno[2,3-d]isoxazol-3-yl-phenoxy)-ethyl]-amine], the inhibition at 1 µM amounted to 88%.

For the molecule `Clc1ccc(CNCCOc2cccc(-c3noc4ccsc34)c2)cc1Cl` [Compound 22, (3,4-dichloro-benzyl)-[2-(3-thieno[2,3-d]isoxazol-3-yl-phenoxy)-ethyl]-amine], the inhibition at 1 µM turned out to be 99%.

Regarding `NS(=O)(=O)c1ccc(CCNCCCOc2cccc(-c3noc4ccsc34)c2)cc1` [Compound 15, 4-{2-[3-(3-thieno[2,3-d]isoxazol-3-yl-phenoxy)-propylamino]-ethyl}-benzenesulfonamide], the inhibition at 1 µM stood at 65%.

Take `c1cc(OCCN2CCCC2)cc(-c2noc3ccsc23)c1` [Compound 61, 3-[3-(2-pyrrolidin-1-yl-ethoxy)-phenyl]-thieno[2,3-d]isoxazole]: the inhibition at 1 µM is 41%.

`c1cc(OCCCNC2Cc3ccccc3C2)cc(-c2noc3ccsc23)c1` [Compound 44, indan-2-yl-[3-(3-thieno[2,3-d]isoxazol-3-yl-phenoxy)-propyl]-amine]: the inhibition at 1 µM turned out to be 96%.

For the molecule `NS(=O)(=O)c1ccc(CNCCCOc2cccc(-c3noc4ccsc34)c2)cc1` [Compound 14, 4-{[3-(3-thieno[2,3-d]isoxazol-3-yl-phenoxy)-propylamino]-methyl}-benzenesulfonamide], the inhibition at 1 µM worked out at 60%.

`c1cc(OCCCN2CCc3ccccc3C2)cc(-c2noc3ccsc23)c1` [Compound 45, 2-[3-(3-thieno[2,3-d]isoxazol-3-yl-phenoxy)-propyl]-1,2,3,4-tetrahydroisoquinoline]: the inhibition at 1 µM was 52%.

Regarding `OC(CNCCCOc1cccc(-c2noc3ccsc23)c1)c1ccccc1` (centres unmarked) [Compound 9, 1-phenyl-2-[3-(3-thieno[2,3-d]isoxazol-3-yl-phenoxy)-propylamino]-ethanol], the inhibition at 1 µM came to 73%.

Consider `Fc1ccccc1N1CCN(CCCOc2cccc(-c3noc4ccsc34)c2)CC1` [Compound 12, 3-(3-{3-[4-(2-fluoro-phenyl)-piperazin-1-yl]-propoxy}-phenyl)-thieno[2,3-d]isoxazole], for which the inhibition at 1 µM was found to be 94%.

Take `Fc1ccc(CNCCCOc2cccc(-c3noc4ccsc34)c2)c(F)c1` [Compound 55, (2,4-difluoro-benzyl)-[3-(3-thieno[2,3-d]isoxazol-3-yl-phenoxy)-propyl]-amine]: the inhibition at 1 µM is 92%.

Staying with this assay, now noted: read-out: D4 RBA % Inhibition (@ 1 μM).
`c1ccc(C2CCN(CCOc3cccc(-c4noc5ccsc45)c3)CC2)cc1` [Compound 30, 3-{3-[2-(4-phenyl-piperidin-1-yl)-ethoxy]-phenyl}-thieno[2,3-d]isoxazole hydrochloride]: the inhibition at 1 µM is 68%.

These data come from patent publication US7091199B1, “Thienoisoxazole phenoxy unsubstituted ethyl and propyl derivatives useful as d4 antagonists” (Aventis Pharmaceuticals Inc., priority 1999, dated 2006).
